# Source: patent publication US6093731A, “Isoquinolines” (priority 1999, dated 2000)
# Where a name gives a salt, the structure may show the parent alone.
# Molecular target: T1, human urokinase (Homo sapiens, UniProt P00749)
# T1 construct: the urokinase used was HMWT Human Urokinase (Calbiochem 672081); purchased Calbiochem 672081
# Assay: urokinase inhibition assay (S-2444 substrate)
# Format: biochemical
# Conditions: not given
row,Compound,Ki [nM]
1,"NC(N)=Nc1ncc(Cl)c2ccc(S(=O)(=O)NC3(C(=O)O)CCCCC3)cc12 [43(b), 1-{[(4-Chloro-1-guanidino-7-isoquinolinyl)sulphonyl]amino}cyclohexanecarboxylic acid hydrochloride]",≤ 20
2,"NC(N)=Nc1ncc(Cl)c2ccc(S(=O)(=O)N3CCC[C@@H]3C(=O)O)cc12 [Example 32(b), N-[(4-Chloro-1-guanidino-7-isoquinolinyl)sulphonyl]-D-proline hydrochloride]",≤ 20

# Next, values leading:
row,Ki [nM],Compound
1,≤ 20,"NC(N)=Nc1ncc(Cl)c2ccc(S(=O)(=O)NC3(C(=O)N4CCOCC4)CCCC3)cc12 [Example 78, 4-Chloro-1-guanidino-N-[1-(morpholinocarbonyl)cyclopentyl]-7-isoquinolinesulphonamide hydrochloride]"
2,≤ 20,"CN1CCN(C(=O)C2(NS(=O)(=O)c3ccc4c(Cl)cnc(N=C(N)N)c4c3)CCCC2)CC1 [Example 79, 4-Chloro-1-guanidino-N-{1-[(4-methylpiperazino)carbonyl]cyclopentyl}-7-isoquinolinesulphonamide dihydrochloride]"

# Same assay, conditions: read-out: Ki values vs. urokinase
row,Compound,Ki [nM]
1,"NC(N)=Nc1ncc(Cl)c2ccc(S(=O)(=O)NC3(C(=O)O)CCCC3)cc12 [37(b), N-[(4-Chloro-1-guanidino-7-isoquinolinyl)sulphonyl]cycloleucine]",≤ 20
2,"CN(C)CCN(C1(C(=O)O)CCCC1)S(=O)(=O)c1ccc2c(Br)cnc(NC(=N)N)c2c1 [84(b), N-({4-Bromo-1-guanidino-7-isoquinolinyl}sulphonyl)-N-[2-(dimethylamino)ethyl]cycloleucine dihydrochloride]",≤ 20
3,"NC(N)=Nc1ncc(Cl)c2ccc(S(=O)(=O)NC3(C(=O)NCCO)CCCC3)cc12 [Example 38, 1-{[(4-Chloro-1-guanidino-7-isoquinolinyl)sulphonyl]amino}-N-(2-hydroxyethyl)cyclopentanecarboxamine hydrochloride]",≤ 20
4,"CN(C)CCNC(=O)C1(NS(=O)(=O)c2ccc3c(Cl)cnc(N=C(N)N)c3c2)CCCC1 [Example 39(a), 1-{[(4-Chloro-1-guanidino-7-isoquinolinyl)sulphonyl]amino}-N-[2-(dimethylamino)ethyl]cyclopentanecarboxamine]",≤ 20
5,"CN(CCO)C(=O)C1(NS(=O)(=O)c2ccc3c(Cl)cnc(NC(=N)N)c3c2)CCCC1 [Example 75, 1-[({4-Chloro-1-guanidino-7-isoquinolinyl}sulphonyl)amino]-N-(2-hydroxyethyl)-N-methylcyclopentanecarboxamide hydrochloride]",≤ 20

# The next lines start with the values.
row,Ki [nM],Compound
1,≤ 20,"COCCNC(=O)C1(NS(=O)(=O)c2ccc3c(Cl)cnc(NC(=N)N)c3c2)CCCC1 [Example 76, 1-[({4-Chloro-1-guanidino-7-isoquinolinyl}sulphonyl)amino]-N-(2-methoxyethyl)cyclopentanecarboxamide hydrochloride]"
2,≤ 20,"N=C(N)Nc1ncc(Cl)c2ccc(S(=O)(=O)N(CCOC3CCCCO3)C3(C(=O)O)CCCC3)cc12 (stereo not drawn) [Example 87(b), 1-{[(4-Chloro-1-guanidino-7-isoquinolinyl)sulphonyl][2-(tetrahydro-2H-pyran-2-yloxy)ethyl]amino}cyclopentanecarboxylic acid]"
3,≤ 20,"NC(N)=Nc1ncc(Cl)c2ccc(S(=O)(=O)N3CCOC(=O)C34CCCC4)cc12 [Example 87(c), N""-{4-Chloro-7-[(10-oxo-9-oxa-6-azaspiro [4.5]dec-6-yl)sulphonyl]-1-isoquinolinyl}guanidine hydrochloride]"
